In brackets after ≈: the same amount, converted by molar mass. Several values for one entry are separate records, joined by “and”; a condition that tells them apart may be missing. Equal values may be shown once.

Test systems include Escherichia coli D21; Acinetobacter baumannii; Escherichia coli O29.
Holding throughout (assay): ≥ marks a high value that may be exact or a test limit, other limits are often not marked, values filed in µg/mL are converted to µM
In assay [1] the test system is Acinetobacter baumannii ATCC 19606.
Assay [2] concerns Candida albicans ATCC 10231.
For assay [3], the system named is Enterococcus faecalis ATCC 19433.
For assay [4], the system named is Enterobacter cloacae ATCC 49141.
Assay [5] relates to Staphylococcus aureus II ATCC 6538P.
For assay [6], the system named is Escherichia coli ATCC 25922.
In assay [7] the test system is Pseudomonas aeruginosa ATCC 27853.
Assay [8] concerns Aspergillus fumigatus ATCC 26430.
The test system of assay [9] is Staphylococcus epidermidis KCTC 1917.
For assay [10], the system named is Burkholderia thailandensis.
The subject of assay [11] is Salmonella typhimurium KCTC 1926.
In assay [12] the test system is Pseudomonas aeruginosa CCARM 2092.
Assay [13] has as its system Bacillus anthracis Sterne 34F2.
In assay [14] the test system is Staphylococcus aureus KCTC 1621.
Assay [15] relates to Bacillus subtilis KCTC 3068.
In assay [16] the test system is Staphylococcus aureus CCARM 3001.
Assay [17] relates to Bacillus subtilis ATCC 9372.
Assay [18] has as its system Pseudomonas aeruginosa CCARM 2095.
Assay [19] deals with Pseudomonas aeruginosa KCTC 1637.
The test system of assay [20] is Staphylococcus aureus CCARM 3543.
For assay [21], the system named is Staphylococcus aureus CCARM 3089.
The subject of assay [22] is Pseudomonas aeruginosa CCARM 2109.
In assay [23] the test system is Escherichia coli KCTC 1682.
In assay [24] the test system is Enterococcus faecalis ATCC 51299.
Assay [25] relates to Actinomyces israelii ATCC 12102.
Assay [26] concerns Enterococcus faecium ATCC 51559.
The subject of assay [27] is Fusobacterium nucleatum NCTC 11326.
The subject of assay [28] is Streptococcus mutans ATCC 25175.
In assay [29] the test system is Staphylococcus aureus CCARM 3095.
The test system of assay [30] is Candida albicans ATCC 26790.
For assay [31], the system named is Porphyromonas gingivalis ATCC 33277.
In assay [32] the test system is Staphylococcus aureus CCARM 3090.
The test system of assay [33] is Staphylococcus aureus ATCC 25923.
Assay [34] has as its system Candida albicans ATCC 14053.
Assay [35] has as its system Staphylococcus aureus mprF.
Assay [36] concerns Streptococcus pyogenes NZ131.
The subject of assay [37] is Escherichia coli CGSC 5167.
Assay [38] concerns Klebsiella pneumoniae ATCC 700603.
Assay [39] has as its system Staphylococcus aureus ATCC 33591.
Assay [40] relates to Enterococcus faecium ATCC 35667.
The test system of assay [41] is Streptococcus pneumoniae ATCC 33400.
Assay [42] concerns Klebsiella pneumoniae ATCC 13883.
Assay [43] deals with Streptococcus pneumoniae ATCC 700677.
Assay [44] relates to Pseudomonas aeruginosa ATCC 10145.

Regarding `CC(C)C[C@H](NC(=O)[C@H](Cc1cnc[nH]1)NC(=O)[C@H](CCCCN)NC(=O)[C@H](CC(C)C)NC(=O)[C@H](CC(C)C)NC(=O)[C@H](Cc1cnc[nH]1)NC(=O)[C@H](CCCCN)NC(=O)[C@H](CC(C)C)NC(=O)[C@H](CC(C)C)NC(=O)[C@H](Cc1cnc[nH]1)NC(=O)[C@H](CCCCN)NC(=O)[C@H](CC(C)C)NC(=O)[C@H](C)NC(=O)[C@H](CC(=O)O)NC(=O)[C@@H](N)CC(=O)O)C(=O)O` [DDALKHLLKHLLKHL], the MIC in [1] is 50 µM (≈ 89.7 µg/mL); in assay [2], 12.5 µM (≈ 22.4 µg/mL); in [3], 25 µM (≈ 44.9 µg/mL); against Escherichia coli D21, at least 50 µM; in assay [4], at least 100 µM; in assay [5], 25 µM and 22 µM. The MIC in assay [6] is 100 µM (≈ 179 µg/mL); in assay [7], 50 µM (≈ 89.7 µg/mL); in assay [8] it was 12.5 µM and 25 µM.
As for `CC(C)[C@H](NC(=O)[C@H](CCCCN)NC(=O)[C@H](CCCN=C(N)N)NC(=O)[C@H](CCCCN)NC(=O)[C@H](CCCCN)NC(=O)[C@H](CCCCN)NC(=O)[C@@H]1CCCN1C(=O)[C@H](CCC(N)=O)NC(=O)[C@H](CO)NC(=O)[C@H](Cc1c[nH]c2ccccc12)NC(=O)[C@H](CCCCN)NC(=O)[C@@H](NC(=O)[C@H](Cc1c[nH]c2ccccc12)NC(=O)[C@H](Cc1c[nH]c2ccccc12)NC(=O)[C@@H](NC(=O)[C@H](CCCCN)NC(=O)[C@H](Cc1c[nH]c2ccccc12)NC(=O)[C@H](Cc1c[nH]c2ccccc12)NC(=O)[C@@H](NC(=O)[C@H](CCCCN)NC(=O)[C@@H](N)CCCCN)[C@@H](C)O)[C@@H](C)O)[C@@H](C)O)C(=O)O` [KKTWWKTWWTKWSQPKKKRKV], the minimal inhibitory concentration (MIC) was 1.41 µM (≈ 4.02 µg/mL) in [9]; at least 100 µM in assay [10]; 1.41 µM (≈ 4.02 µg/mL) in [11]; 8 µM (≈ 22.8 µg/mL) in assay [12]; at least 59 µM in assay [13]; 2 µM (≈ 5.69 µg/mL) in assay [14]. Also, the MIC in assay [15] was found to be 2 µM (≈ 5.69 µg/mL); in [16], 2 µM (≈ 5.69 µg/mL); in [17], 3.3 µM (≈ 9.39 µg/mL); in assay [18] it was 8 µM (≈ 22.8 µg/mL); in [19] it was 2.83 µM (≈ 8.05 µg/mL); in assay [20], 1 µM (≈ 2.85 µg/mL). Moreover, the results for the MIC in [21], in [22] and in [23] were 2 µM (≈ 5.69 µg/mL), 8 µM (≈ 22.8 µg/mL) and 2 µM (≈ 5.69 µg/mL), respectively.
Turning to `CC[C@H](C)[C@H](NC(=O)[C@H](CC(C)C)NC(=O)[C@H](CCCCN)NC(=O)[C@@H](NC(=O)[C@@H](NC(=O)[C@H](CCCN=C(N)N)NC(=O)[C@@H](N)CCCCN)[C@@H](C)CC)C(C)C)C(=O)N[C@@H](CC(C)C)C(=O)N[C@@H](CCCCN)C(=O)N[C@@H](Cc1c[nH]c2ccccc12)C(=O)N[C@@H](CC(C)C)C(=O)N[C@@H](CCCN=C(N)N)C(N)=O` [KRIVKLILKWLR], the minimal inhibitory concentration (MIC) was 2 µM (≈ 3.13 µg/mL) in [9]; at least 39.9 µM in assay [24]; 2.5 µM (≈ 3.91 µg/mL) in assay [25]; 4 µM (≈ 6.26 µg/mL) in assay [26]; 2.83 µM (≈ 4.43 µg/mL) in assay [11]; 4.99 µM (≈ 7.81 µg/mL) in assay [27]. Also, the MIC was determined as 5.66 µM (≈ 8.85 µg/mL) in [15]; 16 µM (≈ 25 µg/mL) in assay [18]; 8 µM (≈ 12.5 µg/mL) in [19]; 2.5 µM (≈ 3.91 µg/mL) in [28]; 4 µM (≈ 6.26 µg/mL) in assay [29]; 9.97 µM (≈ 15.6 µg/mL) in [30]. Moreover, the MIC amounted to 4 µM (≈ 6.26 µg/mL) in assay [21]; 8 µM (≈ 12.5 µg/mL) in assay [22]; 2.5 µM (≈ 3.91 µg/mL) in assay [31]; 8 µM (≈ 12.5 µg/mL) in assay [32]; 8 µM (≈ 12.5 µg/mL) in assay [23].
`CC[C@H](C)[C@H](NC(=O)[C@H](CCCN=C(N)N)NC(=O)[C@H](CCC(N)=O)NC(=O)[C@@H](NC(=O)[C@@H](NC(=O)[C@H](CCCN=C(N)N)NC(=O)[C@@H](N)CCCCN)[C@@H](C)CC)C(C)C)C(=O)N[C@@H](CCCCN)C(=O)N[C@@H](CC(=O)O)C(=O)N[C@@H](Cc1ccccc1)C(=O)N[C@@H](CC(C)C)C(=O)N[C@@H](CCCN=C(N)N)C(=O)N[C@@H](CC(N)=O)C(=O)N[C@@H](CC(C)C)C(=O)N[C@H](C(=O)N1CCC[C@H]1C(=O)N[C@@H](CCCN=C(N)N)C(=O)N[C@H](C(=O)N[C@@H](CCC(=O)O)C(=O)N[C@@H](CO)C(=O)O)[C@@H](C)O)C(C)C` [KRIVQRIKDFLRNLVPRTES]: the MIC in [1] is 25.9 µM (≈ 64 µg/mL); against Acinetobacter baumannii it was 9.16 µM (≈ 22.6 µg/mL); in assay [33] it was over 64 µM; in assay [34] it was 10 µM (≈ 24.7 µg/mL); in the assay on Escherichia coli O29, at least 64 µM; in assay [35], 16 µM (≈ 39.5 µg/mL). In assay [36], this compound returned an MIC of 4 µM (≈ 9.88 µg/mL).
On to `CC[C@H](C)[C@H](NC(=O)[C@H](CCCN=C(N)N)NC(=O)[C@H](CCCN=C(N)N)NC(=O)[C@H](Cc1ccccc1)NC(=O)[C@H](CC(C)C)NC(=O)[C@H](CCCN=C(N)N)NC(=O)[C@@H](N)CCCN=C(N)N)C(=O)N[C@@H](CC(C)C)C(=O)N[C@@H](CCCN=C(N)N)C(=O)N[C@@H](Cc1ccc(O)cc1)C(=O)N[C@@H](CC(C)C)C(N)=O` [RRLFRRILRYL], for which the MIC in assay [37] was found to be 0.4 µM (≈ 0.624 µg/mL); in [38], 0.6 µM (≈ 0.937 µg/mL); in assay [26] it was 2 µM (≈ 3.12 µg/mL); in assay [39] it was 3 µM (≈ 4.68 µg/mL); in [40], 4 µM (≈ 6.24 µg/mL); in assay [41], 5 µM (≈ 7.8 µg/mL). Besides, the MIC in assay [33] stood at 6 µM (≈ 9.37 µg/mL); in assay [6], 0.9 µM (≈ 1.4 µg/mL); in assay [42], 0.3 µM (≈ 0.468 µg/mL); in assay [43] it was 4 µM (≈ 6.24 µg/mL); in [44], 2 µM (≈ 3.12 µg/mL); in assay [7] it was 1.5 µM (≈ 2.34 µg/mL).

What is called MIC is the least concentration at which growth counts as inhibited. Low readings indicate inhibition by little substance, high ones a need for much substance.
